From patent publication US20240285773A1, “METHODS OF TREATING MYELODYSPLASTIC SYNDROME AND MONITORING THE TREATMENT” (Geron Corporation, priority 2023, published 2024)
Values joined by “and” are separate entries in the source; they are usually repeats but may differ in a detail not shown here. Identical values can stand only once. [nps] = N3'→P5' thiophosphoramidate linkage; {Palm} = palmitoyl lipid

Test system: RBC transfusion-dependent patients with IPSS low or intermediate-1 risk MDS
Assay: Phase 3 trial: RBC transfusion independence (RBC-TI)
Format: in vivo, human
Settings: for TI duration, median: Kaplan-Meier
Procedure: Patients were randomly assigned (based on a computer-generated schedule) in a 2:1 ratio to receive imetelstat or placebo, administered intravenously every 4 weeks until treatment discontinuation; crossover was not allowed. Randomization was stratified by prior RBC transfusion burden (≥4 to ≤6 or >6 units over an 8-week period during 16 weeks prior to randomization) and IPSS risk group (low or intermediate-1 risk). The starting dose of imetelstat was 7.5 mg/kg every four weeks. If a patient developed grade 3 or 4 hematologic and nonhematologic toxicities, dosing was held and, if necessary, reduced (Tables 2-4).
The primary end point was rate of RBC-TI for 8 consecutive weeks or longer. Key secondary end points included rate of 24-week TI, duration of TI, and the rate of hematologic response (hematologic improvement-erythroid [HI-E], based on modified International Working Group [IWG] 2006 criteria, and HI-E per revised IWG 2018). Additional secondary end points included relative change in number of RBC transfusions received by patients, relative change in hemoglobin, and safety. The changes in mutational status and in patient-reported fatigue over time (assessed by the Functional Assessment of Chronic Illness Therapy [FACIT] Fatigue Scale) were exploratory end points. Subgroup analyses were performed including baseline presence or absence of RS, prior RBC transfusion burden (≥4 to ≤6 or >6 RBC units/8-weeks during a 16-week period prior to randomization), and low or intermediate-1 IPSS risk categories. Subgroup analyses were also performed, including baseline mutation status as well as telomerase activity (TA), telomere lengths (TL), and human telomerase reverse transcriptase (hTERT) levels. Peripheral blood hematology, bone marrow evaluation, mutation assessment, and cytogenetic evaluation were performed centrally and responses assessed by an independent review committee (IRC). Rate of 1-year RBC-TI was reported as a post hoc analysis.
The data cutoff date for this primary analysis was 1 year after the last patient was randomized. All the efficacy analyses for primary and key secondary end points were conducted in the intent-to-treat population. […] The percentages of patients with a response for the two treatment groups were compared with a stratified Cochran-Mantel-Haenszel test at a two-sided significance level of 0.05 adjusting for stratification factors, prior RBC transfusion burden, and IPSS risk category low or intermediate-1. Multiplicity was accounted for by a sequential gatekeeping approach for the primary and key secondary end points, which were tested sequentially in the prespecified order of 8-week TI, followed by 24-week TI. Durations of RBC-TI were calculated by Kaplan-Meier method. Safety analyses were conducted in the safety population (all patients who received ≥1 dose of trial medication).
Treatment: In the patients from imetelstat treatment group, imetelstat sodium was administered as a 2-hour IV infusion every 4 weeks at 7.5 mg/kg. Supportive care, including RBC and platelet transfusions, myeloid growth factors (e.g., G-CSF (granulocyte colony stimulating factor)), and iron chelation therapy was administered as needed on study per investigator discretion. Control group received corresponding treatment without imetelstat.
End points and Analysis: • Primary end point: 8-week RBC TI. Proportion of patients without any RBC transfusion for at least eight consecutive weeks since entry to the trial (8-week TI). • Key secondary end points: • 24-week RBC TI; proportion of patients without any RBC transfusion for at least 24 consecutive weeks since entry to the trial (24-week TI). • Duration of TI; • Hematologic improvement-Erythroid (HI-E).
The 8-week RBC-TI rate was the proportion of patients without any RBC transfusion during any consecutive 8 weeks (56 days) starting from Study Day 1 until subsequent anti-cancer therapy, if any. […]

[1] = mutated transcription regulation genes
[2] = poor-prognosis genes mutated at baseline

Imetelstat: first-in-class telomerase inhibitor; synthetic lipid-conjugated 13-mer oligonucleotide N3′→P5′-thiophosphoramidate (TAGGGTTAGACAA; all [nps], 5' {Palm}, sugars by position and methylation of C not given here)
Difference in median RBC-TI duration vs placebo (8-week TI responders): 38.3 week | Hazard ratio, duration of RBC-TI vs placebo (8-week TI responders): 0.23 | TI duration, median (8-week TI responders): 51.6 weeks | TI duration, median (8-week TI responders, listed as imetelstat): 51.6 weeks and 52 weeks | ≥8-week TI rate (>1 baseline mutation): 42.7% | ≥24-week TI rate (>1 baseline mutation): 26.7% | ≥8-week TI rate (>2 baseline mutations): 45.5% | ≥24-week TI rate (>2 baseline mutations): 33.3% | ≥8-week TI rate (>3 baseline mutations): 55.6% | ≥24-week TI rate (>3 baseline mutations): 33.3% | 8-week TI response (ASXL1 mutations): 5/18 | 8-week TI response rate (ASXL1 mutations): (27.8) % | ≥24-week TI rate (ASXL1 mutations): 11.1% | 8-week TI response rate (ASXL1 mutations, listed as imetelstat): 27.8% | ≥8-week TI rate (CUX1 mutations): 35.7% | ≥24-week TI rate (CUX1 mutations): 14.3% | ≥8-week TI rate (DNMT3A mutations): 31.6% | ≥24-week TI rate (DNMT3A mutations): 26.3% | 8-week TI response (ETV6 mutations): 1/2 | 8-week TI response rate (ETV6 mutations): (50.0) % | 8-week TI response rate (ETV6 mutations, listed as imetelstat): 50% | 8-week RBC-TI rate (IPSS intermediate-1 risk): 40% | 8-week RBC-TI rate (IPSS low risk): 40% | 8-week TI rate (ITT N=118): 39.8% and 40% | 16-week TI rate (ITT N=118): 31.4% | 16-week TI, patients (ITT N=118): 37 n | 24-week TI rate (ITT N=118): 28% | 24-week TI, patients (ITT N=118): 33 n | ≥1-year TI rate (ITT N=118): 17.8% and 18% | ≥1-year TI, patients (ITT N=118): 21 n | 8-week TI, patients (ITT N=118, 7.5 mg/kg IV every 4 weeks): 47 n | 8-week TI response (RUNX1 mutations): 0/2 | 8-week TI response rate (RUNX1 mutations): (0) % | ≥8-Week RBC-TI (SF3B1 hot-spot A744P): 100% | ≥8-Week RBC-TI (SF3B1 hot-spot E622D): 25.0% | ≥8-Week RBC-TI (SF3B1 hot-spot E783K): 50.0% | ≥8-Week RBC-TI (SF3B1 hot-spot H662Q/N/D/Y): 58.3% | ≥8-Week RBC-TI (SF3B1 hot-spot K666R/T/Q/N): 33.3% | ≥8-Week RBC-TI (SF3B1 hot-spot K700E): 43.9% | ≥8-Week RBC-TI (SF3B1 hot-spot R625C/L/G): 57.1% | ≥8-Week RBC-TI (SF3B1 hot-spot T663P): 100% | ≥8-week TI rate (TET2 mutations): 50% | ≥24-week TI rate (TET2 mutations): 40% | 8-week TI response (TP53 mutations): 2/2 | 8-week TI response rate (TP53 mutations): (100) % | ≥8-week TI rate (baseline SF3B1 mutations): 48.8% | ≥24-week TI rate (baseline SF3B1 mutations): 35.4% | 8-week RBC-TI responders with a single continuous RBC-TI period (in vivo): 83% | 8-week TI responders who went on to achieve 24-week TI (in vivo): Approximately 70% | ≥1-year TI among ≥8-week TI responders (in vivo): 44.7% and 45% | ≥1-year TI among ≥24-week TI responders (in vivo): 63.6% and 64% | ≥8-week TI rate (mutated RNA spliceosome genes): 43.8% | ≥24-week TI rate (mutated RNA spliceosome genes): 30.2% | ≥8-week TI rate (mutated epigenetic modifiers): 37.7% | ≥24-week TI rate (mutated epigenetic modifiers): 27.5% | ≥8-week TI rate (mutated receptors/kinases): 80.0% | ≥24-week TI rate (mutated receptors/kinases): 80.0% | ≥8-week TI rate [1]: 40.0% | ≥24-week TI rate [1]: 20.0% | Median TI duration (patients who achieved 24-week TI): 80.0 weeks | 8-week RBC-TI rate (patients with RS): 45% | 24-week RBC-TI rate (patients with RS): 33% | Difference vs placebo in TI ≥24 weeks (patients with RS): 28% | 8-week RBC-TI, patients (patients with RS (of 73)): 33 patients | 8-week RBC-TI rate (patients without RS): 32% | 24-week RBC-TI rate (patients without RS): 20% | Difference vs placebo in TI ≥24 weeks (patients without RS): 21% | 8-week RBC-TI, patients (patients without RS (of 44)): 14 patients | 8-week TI response [2]: 7/22 | 8-week TI response rate [2]: (31.8) % | ≥24-week TI rate [2]: 9.1% | 8-week TI response rate (poor-prognosis genes mutated at baseline, listed as imetelstat): 31.8% | 8-week RBC-TI rate (prior burden >6 units/8 weeks): 34% | 8-week RBC-TI, patients (prior burden >6 units/8 weeks (of 56)): 19 patients | 8-week RBC-TI rate (prior burden ≥4 to ≤6 units/8 weeks): 45% | 8-week RBC-TI, patients (prior burden ≥4 to ≤6 units/8 weeks (of 62)): 28 patients | Median duration of TI (≥1-year TI responders): 123 weeks
